Reference: the RepoRT retention time repository (doi:10.3390/metabo9050085)

Assay: Phenomenex Kinetex C18, 150 × 2.1 mm, 1.7 µm, 30 °C, 0.3 mL/min; A: water + 0.1% formic acid; B: acetonitrile + 0.1% formic acid; gradient (min/%B) 0/2 14/100 17/100 17/2 25/2
Conditions: stereoisomer not certain

Row | SMILES | LC retention time
1 | CC12CCC(O)CC1=CCC1C2C(O)CC2(C)C1CCC2(O)C(=O)CO (stereo not given) | 8.15 min
2 | CC12CCC(=O)C=C1CCC1C2C(O)CC2(CO)C(C(=O)CO)CCC12 (stereo not given) | 7.34 min
3 | CC12CCC(O)CC1CCC1C2CCC2(C)C(C(=O)CO)CCC12 (stereo not given) | 11.3 min
4 | CC12CCC(O)CC1=CCC1C2CCC2(C)C(C(=O)CO)CCC12 (stereo not given) | 10.5 min
5 | CC12CCC(=O)C=C1CCC1C2C(O)CC2(C)C(C(=O)CO)CCC12 (stereo not given) | 8.81 min
6 | CC(O)C1(O)CCC2C3CCC4CC(O)CCC4(C)C3CCC21C (stereo not given) | 11 min
7 | CC12CCC(=O)C=C1CCC1C2C(O)CC2(C=O)C1CCC2(O)C(=O)CO (stereo not given) | 6.76 min
8 | CC12CCC3c4ccc(O)c(O)c4CCC3C1CCC2O (stereo not given) | 7.61 min
9 | CC12CCC3C(CCC4=CC(=O)CCC43CO)C1CCC2O (stereo not given) | 7.3 min
10 | CC12CCC(O)CC1CCC1C2CC(O)C2(C)CCC(O)C12 (stereo not given) | 6.31 min
11 | COc1cc2c(cc1O)CCC1C2CCC2(C)C(O)CCC12 (stereo not given) | 10.5 min
12 | CC12CCC3C(CC=C4CC(=O)CCC43C)C1CCC2=O (stereo not given) | 11 min
13 | CC12CCC3C(C(O)CC4CC(O)CCC43C)C1CCC2=O (stereo not given) | 8.74 min
14 | CC12CCC(O)CC1CCC1C2C2CC3(C(O)O2)C(C(=O)CO)CCC13 (stereo not given) | 7.18 min
15 | CC(O)C1(O)CCC2C3CCC4CC(O)CCC4(C)C3C(=O)CC21C (stereo not given) | 8.66 min
16 | CC12CCC(O)CC1CCC1C2C(=O)CC2(C)C1CCC2(O)C(=O)CO (stereo not given) | 8.38 min
17 | CC(=O)C1C(O)CC2C3CC=C4CC(O)CCC4(C)C3CCC21C (stereo not given) | 9.87 min
18 | CC12CCC(=O)C=C1CCC1C2CCC2(C)C(OS(=O)(=O)O)CCC12 (stereo not given) | 9.81 min
19 | CC12CCC3C(CCC4=CC(=O)CCC43C(=O)O)C1CCC2C(=O)CO (stereo not given) | 8.03 min
20 | CC(=O)C1CCC2C3=CC=C4CC(O)CCC4(C)C3CCC12C (stereo not given) | 11.6 min
21 | CC(CCC(=O)O)C1CCC2C3CCC4CCCCC4(C)C3CC(O)C12C (stereo not given) | 16.7 min
22 | CC12CCC(=O)C=C1CCC1C2C(O)CC2(C)C(C(=O)CC(=O)O)CCC12 (stereo not given) | 9.18 min
23 | COc1cc2c(cc1O)CCC1C2CCC2(C)C(=O)CCC12 (stereo not given) | 11.3 min
24 | CC(=O)C1(O)CCC2C3CC=C4CC(O)CCC4(C)C3CCC21C (stereo not given) | 10.7 min
25 | CC12CCC(=O)C=C1CCC1C2CCC2(C)C1CCC2(O)C(=O)CO (stereo not given) | 9.04 min

Row | SMILES | LC retention time
26 | CC(=O)C1(O)CCC2C3CCC4=CC(=O)CCC4(C)C3C(O)CC21C (stereo not given) | 8.8 min
27 | CC12CCC(=O)CC1CCC1C2CCC2(C)C(OS(=O)(=O)O)CCC12 (stereo not given) | 10.6 min
28 | CC(CCC(=O)O)C1CCC2C3CC=C4CC(O)CCC4(C)C3CCC12C (stereo not given) | 15.8 min
29 | CC12CCC3c4ccc(O)cc4CCC3C1C(O)CC2O (stereo not given) | 7.33 min
30 | CC(O)C1(O)CCC2C3CCC4=CC(=O)CCC4(C)C3CCC21C (stereo not given) | 9.92 min
31 | CC(=O)C1CCC2C3C(O)C=C4CC(O)CCC4(C)C3CCC12C (stereo not given) | 8.93 min
32 | CC12CCC(O)CC1CCC1C2CCC2(C)C1CCC2(O)C(=O)CO (stereo not given) | 10.1 min
33 | CC12CCC3C(CCC4=CC(=O)CCC43C)C1CCC2=O (stereo not given) | 10.8 min
34 | CC12CCC3C(C(O)CC4=CC(=O)CCC43C)C1CCC2=O (stereo not given) | 7.78 min
35 | CC12CCC(=O)C=C1CCC1C2CCC2(C)C(O)CC(O)C12 (stereo not given) | 6.97 min
36 | CC12CCC3C4=C(CCC3C1CCC2O)C(=O)C(=O)C=C4 (stereo not given) | 7.81 min
37 | CC12CCC3C(C(O)CC4CC(O)CCC43C)C1CC(O)C2 (stereo not given) | 7.39 min
38 | CC12C=CCC1C1CCC3CC(O)CCC3(C)C1CC2 (stereo not given) | 11.9 min
39 | CC12CCC(=O)C=C1CCC1C2C(=O)CC2(C)C1CCC2(O)C(=O)CO (stereo not given) | 7.75 min
40 | CC12CCC3c4cc(O)c(O)cc4CCC3C1CCC2=O (stereo not given) | 8.07 min
41 | CC12CCC3c4ccc(O)cc4C(O)CC3C1CCC2O (stereo not given) | 7.01 min
42 | COc1cc2c(cc1O)C1CCC3(C)C(=O)CCC3C1CC2 (stereo not given) | 9.83 min
43 | CC12CCC(O)CC1=CC(O)C1C2CCC2(C)C(O)CCC12 (stereo not given) | 7.81 min
44 | CC12CCCC1C1CC(O)C3(O)CC(O)CCC3(C)C1CC2 (stereo not given) | 10.5 min
45 | CC12CCC3c4ccc(O)cc4C(=O)CC3C1CC(O)C2O (stereo not given) | 6.59 min
46 | CC(=O)C1=CCC2C3CCC4=CC(=O)CCC4(C)C3CCC12C (stereo not given) | 12.7 min
47 | CC12CCC3c4ccc(O)cc4CCC3C1C(O)CC2=O (stereo not given) | 7.7 min
48 | CC12C=CC(=O)CC1CCC1C2CCC2(C)C(O)CCC12 (stereo not given) | 9.97 min
49 | CC12CCC(=O)C=C1CCC1C2C(O)CC2(C)C(C(=O)C(=O)O)CCC12 (stereo not given) | 8.1 min
50 | CC(=O)C1(O)CCC2C3CCC4=CC(=O)CCC4(C)C3CCC21C (stereo not given) | 10.9 min

Row | SMILES | LC retention time
51 | CC12CCC(O)CC1=CCC1C2CCC2(C)C(O)CCC12 (stereo not given) | 10.8 min
52 | CC12CCC(O)C=C1CCC1C2CCC2(C)C(O)CCC12 (stereo not given) | 9.76 min
53 | CC12CC(=O)C3C(CCC4=CC(=O)CCC43C)C1CCC2=O (stereo not given) | 8.68 min
54 | CC12CCC(O)CC1CCC1C2C(=O)CC2(CO)C(C(=O)CO)CCC12 (stereo not given) | 7.57 min
55 | COc1c(O)ccc2c1CCC1C2CCC2(C)C(=O)CCC12 (stereo not given) | 9.74 min
56 | CC12CCC3C(CCC4=CC(=O)CCC43C=O)C1CCC2C(=O)CO (stereo not given) | 8.89 min
57 | CC12CCCC1C1CCC3CC(O)CCC3(C)C1CC2 (stereo not given) | 12.9 min
58 | CC12CCC(=O)C=C1CCC1C2C(O)CC2(C=O)C(C(=O)CO)CCC12 (stereo not given) | 7.15 min
59 | CC12CCC3c4ccc(OS(=O)(=O)O)cc4CCC3C1CCC2=O (stereo not given) | 8.65 min
60 | CC(=O)C1C(O)CC2C3CCC4=CC(=O)CCC4(C)C3CCC21C (stereo not given) | 9.08 min
61 | CC12CCC(O)CC1=CCC1C2CCC2(C)C1CCC2(O)C(=O)CO (stereo not given) | 8.44 min
62 | CC12CCC3c4ccc(O)cc4CC(O)C3C1CCC2O (stereo not given) | 7.15 min
63 | CC12CCC3C4CCC(=O)CC4CCC3C1CCC2O (stereo not given) | 9.72 min
64 | CC12CCC(=O)C=C1CCC1C2C(O)CC2(C)C(O)CCC12 (stereo not given) | 8.2 min
65 | CC12CCC3C(C(=O)CC4CC(O)CCC43C)C1CCC2=O (stereo not given) | 8 min
66 | CC12CCC(=O)C=C1CCC1C2C(O)CC2(C)C1CCC2(O)C(=O)CO (stereo not given) | 7.61 min
67 | CC12CCC(=O)C=C1CCC1C2C(=O)CC2(C)C(C(=O)CO)CCC12 (stereo not given) | 8.53 min
68 | CC12CCC3C(CCC4CC(OS(=O)(=O)O)CCC43C)C1CCC2=O (stereo not given) | 10.5 min
69 | CC(=O)C1CCC2C3CC=C4CC(O)CCC4(C)C3CCC12C (stereo not given) | 13 min
70 | CC12CCC3C(CCC4=CC(=O)CCC43CO)C1CCC2=O (stereo not given) | 7.72 min
71 | CC12CC(=O)C3C(CCC4CC(O)CCC43C)C1CCC2C(=O)CO (stereo not given) | 9.06 min
72 | CC12CCC3c4ccc(O)c(O)c4CCC3C1CCC2=O (stereo not given) | 8.06 min
73 | CC12CCC3C(CC=C4CC(OS(=O)(=O)O)CCC43C)C1CCC2=O (stereo not given) | 9.91 min
74 | CC12CCC3c4ccc(O)cc4C(O)CC3C1CCC2=O (stereo not given) | 7.97 min
75 | CC(O)C1CCC2C3CCC4CC(=O)CCC4(C)C3CCC12C (stereo not given) | 13.9 min

Row | SMILES | LC retention time
76 | CC12CCC(=O)CC1CCC1C2C(O)CC2(C=O)C(C(=O)CO)CCC12 (stereo not given) | 7.97 min
77 | CC12CCC(=O)CC1CCC1C2CCC2(C)C(C(=O)CO)CCC12 (stereo not given) | 11.6 min
78 | CC12CCC3C4=CC(=O)C(=O)C=C4CCC3C1CCC2O (stereo not given) | 7.58 min
79 | CC(=O)C1CCC2C3CCC4=CC(=O)CCC4(C)C3CCC12C (stereo not given) | 12.9 min
80 | COc1cc2c(cc1O)C1CCC3(C)C(O)CCC3C1CC2 (stereo not given) | 9.26 min
81 | CC12CCC3C(CCC4=CC(=O)CCC43C=O)C1CCC2=O (stereo not given) | 9.42 min
82 | CC12CCC3C(CC(O)C4CC(O)CCC43C)C1CCC2O (stereo not given) | 8.18 min
83 | CC12CCC(=O)C=C1CCC1C2C(O)CC2(CO)C1CCC2(O)C(=O)CO (stereo not given) | 6.52 min
84 | CC12CCC(O)CC1CCC1C2C(O)CC2(C=O)C(C(=O)CO)CCC12 (stereo not given) | 7.76 min
85 | CC12CCC(=O)C=C1CC(O)C1C2CCC2(C)C(O)CCC12 (stereo not given) | 7.06 min
86 | CC12CC(O)C3C(CCC4=CC(=O)CCC43C)C1CCC2=O (stereo not given) | 8.87 min
87 | CC12CCC3c4ccc(OS(=O)(=O)O)c(O)c4CCC3C1CCC2=O (stereo not given) | 7.73 min
88 | CC12CCC(O)CC1=CCC1C2CCC2(C)C(O)C(=O)CC12 (stereo not given) | 8.03 min
89 | CC(O)C1CCC2C3CCC4=CC(=O)CCC4(C)C3CCC12C (stereo not given) | 12 min
90 | CC12CCC3C(CCC4=CC(=O)CCC43C=O)C1CCC2O (stereo not given) | 8.59 min
91 | COc1cc2c(cc1OC)C1CCC3(C)C(O)CCC3C1CC2 (stereo not given) | 11.5 min
92 | CC12CCC3c4cc(O)c(O)cc4CCC3C1CCC2O (stereo not given) | 7.86 min
93 | CC12CC(=O)C3C(CCC4CC(O)CCC43C)C1CCC2C(O)CO (stereo not given) | 8.54 min
94 | CC12CCC(=O)C=C1CCC1C2CCC2(C)C1CCC2(O)CCO (stereo not given) | 10 min
95 | O=CC12CC(O)C3C4CCC(=O)C=C4CCC3C1CCC2C(=O)CO (stereo not given) | 7.1 min
96 | CC12CCC3c4ccc(O)cc4CCC3C1CCC2=O (stereo not given) | 10.7 min
97 | CC12CCC3C(CCC4=CC(=O)CCC43C)C1CC(O)C2=O (stereo not given) | 8.39 min
98 | CC(C(=O)O)C1CCC2C3C(O)CC4CC(O)CCC4(C)C3CC(O)C12C (stereo not given) | 8.37 min
99 | CC12CCC(=O)C=C1CCC1C2CCC2(C)C(C(=O)CO)CCC12 (stereo not given) | 10.5 min
100 | CC12CCC3c4ccc(O)cc4CCC3C1CC(=O)C2=O (stereo not given) | 7.82 min
